In the supplement of paper PMC11208160:

Assay: recombinant UMI read abundance after kanamycin selection (control-corrected) (log10(CPM+1)); higher = more efficient recombination; extreme values may be limits of the assay; sequences stand for … in AGTGCAGAGAAAATCGGCCAGTTTTCTCTGCCTGCAGTCCGCATGCCGTGGGACCCCTTGGGTTCTAACCTGTTGCCTAGATTTATGCAGCGGACTGCCTTTCTCCCAAAGTGATAAACCGG…AGGTTGGTTTCACT; site = the 11-nt donor
In short: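 Values, expressed as log10(CPM+1), derive from recombinant UMI counts converted to CPM, averaged across replicates and scaled by control-derived factors. Plating was with IPTG (0.07 mM) plus kanamycin or unselected, two replicates each. The screen pooled donor and donor-binding-loop pairs for the IS621 bridge recombinase in Escherichia coli.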
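Note: IS621 bridge recombinase in Escherichia coli cells against a fixed T5 target plasmid.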

Sequence | recombinant UMI read abundance (log10)
AGAGTAACATGGACCGGTTTTCCCGGTAATCCGTATTTGCA (site AGAGTAACTTG) | 2.71
AGAGTATCATGGACCGGTTTTCCCGGTAATCCGTATTTGCA (site AAAGTATCTTG) | 2.57
AGAGTATCATGGACCGGTTTTCCCGGTAATCCGTATTTGCA (site ACAGTATCTTG) | 2.7
AGAGTATCATGGACCGGTTTTCCCGGTAATCCGTATTTGCA (site AGAGTATCTTG) | 3.29
AGAGTATCATGGACCGGTTTTCCCGGTAATCCGTATTTGCA (site ATAGTATCTTG) | 1.83
AGAGTATCATGGACCGGTTTTCCCGGTAATCCGTATTTGCC (site ACAGTATCTTG) | 0
AGAGTATCATGGACCGGTTTTCCCGGTAATCCGTATTTGCC (site AGAGTATCTGG) | 2.98
AGAGTCACATGGACCGGTTTTCCCGGTAATCCGTATTTGAG (site AGAGTCACTCT) | 2.34
AGAGTGCCATGGACCGGTTTTCCCGGTAATCCGTATTTGGG (site AGAGTGCCTCC) | 0.0257
AGATAATCATGGACCGGTTTTCCCGGTAATCCGTATTTGCG (site AGATAATCTCG) | 2.61
AGATAGACATGGACCGGTTTTCCCGGTAATCCGTATTTGCC (site AGATAGACTGG) | 3.03
AGATAGACATGGACCGGTTTTCCCGGTAATCCGTATTTGCC (site CGATAGACTGG) | 1.36
AGATAGACATGGACCGGTTTTCCCGGTAATCCGTATTTGCC (site GGATAGACTGG) | 1.35
AGATAGACATGGACCGGTTTTCCCGGTAATCCGTATTTGCC (site TGATAGACTGG) | 2.34
AGATAGGCATGGACCGGTTTTCCCGGTAATCCGTATTTGCT (site AGAAAGGCTAG) | 0.622
AGATAGGCATGGACCGGTTTTCCCGGTAATCCGTATTTGCT (site AGACAGGCTAG) | 2.12
AGATAGGCATGGACCGGTTTTCCCGGTAATCCGTATTTGCT (site AGAGAGGCTAG) | 0.862
AGATAGGCATGGACCGGTTTTCCCGGTAATCCGTATTTGCT (site AGATAGGCTAG) | 2.66
AGATAGGCATGGACCGGTTTTCCCGGTAATCCGTATTTGTA (site AGATAGGCTTA) | 2.52
AGATCCCCATGGACCGGTTTTCCCGGTAATCCGTATTTGTA (site AGATCCCCTTA) | 0.595
AGATGAGCATGGACCGGTTTTCCCGGTAATCCGTATTTGCA (site AGATGAGCTTG) | 2.71
AGATGTTCATGGACCGGTTTTCCCGGTAATCCGTATTTGTT (site AGATGTTCTAA) | 1.45
AGATTAGCATGGACCGGTTTTCCCGGTAATCCGTATTTGAT (site AGATTAGCTAT) | 2.09
AGCAACGCATGGACCGGTTTTCCCGGTAATCCGTATTTGTG (site AGCAACGCTCA) | 1.36
AGCAATACATGGACCGGTTTTCCCGGTAATCCGTATTTGCA (site AGCAATACTTG) | 1.73

Sequence | recombinant UMI read abundance (log10)
AGCAATACATGGACCGGTTTTCCCGGTAATCCGTATTTGCA (site AGGAAGACTTG) | 0
AGCACGGCATGGACCGGTTTTCCCGGTAATCCGTATTTGCT (site AGCACGGCTAG) | 1.9
AGCACTACATGGACCGGTTTTCCCGGTAATCCGTATTTGAC (site AGAACTACTGT) | 1.25
AGCACTACATGGACCGGTTTTCCCGGTAATCCGTATTTGAC (site AGCACTACTGT) | 1.85
AGCACTACATGGACCGGTTTTCCCGGTAATCCGTATTTGAC (site AGGACTACTGT) | 0.927
AGCACTACATGGACCGGTTTTCCCGGTAATCCGTATTTGAC (site AGTACTACTGT) | 0.741
AGCATCCCATGGACCGGTTTTCCCGGTAATCCGTATTTGGC (site AGCATCCCTGC) | 1.74
AGCCAAGCATGGACCGGTTTTCCCGGTAATCCGTATTTGAG (site AACCAAGCTCT) | 0.0428
AGCCAAGCATGGACCGGTTTTCCCGGTAATCCGTATTTGAG (site ACCCAAGCTCT) | 0.641
AGCCAAGCATGGACCGGTTTTCCCGGTAATCCGTATTTGAG (site AGCCAAGCTCT) | 1.3
AGCCAAGCATGGACCGGTTTTCCCGGTAATCCGTATTTGAG (site ATCCAAGCTCT) | 0.655
AGCCGCTCATGGACCGGTTTTCCCGGTAATCCGTATTTGAT (site AGCCGCTCTAT) | 1.65
AGCCGTCCATGGACCGGTTTTCCCGGTAATCCGTATTTGAT (site AACCGTCCTAT) | 0.00909
AGCCGTCCATGGACCGGTTTTCCCGGTAATCCGTATTTGAT (site ACCCGTCCTAT) | 0
AGCCGTCCATGGACCGGTTTTCCCGGTAATCCGTATTTGAT (site AGCCGTCCTAT) | 1.09
AGCCGTCCATGGACCGGTTTTCCCGGTAATCCGTATTTGAT (site ATCCGTCCTAT) | 0.0112
AGCCTCTCATGGACCGGTTTTCCCGGTAATCCGTATTTGAC (site AGCCTATCTGT) | 0
AGCCTCTCATGGACCGGTTTTCCCGGTAATCCGTATTTGAC (site AGCCTCTCTGT) | 0
AGCCTCTCATGGACCGGTTTTCCCGGTAATCCGTATTTGAC (site AGCCTGTCTGT) | 0
AGCCTCTCATGGACCGGTTTTCCCGGTAATCCGTATTTGAC (site AGCCTTTCTGT) | 0
AGCCTTACATGGACCGGTTTTCCCGGTAATCCGTATTTGAC (site AGCCTTACTGT) | 2.52
AGCCTTACATGGACCGGTTTTCCCGGTAATCCGTATTTGAC (site AGCCTTCCTGT) | 0
AGCCTTACATGGACCGGTTTTCCCGGTAATCCGTATTTGAC (site AGCCTTGCTGT) | 0
AGCCTTACATGGACCGGTTTTCCCGGTAATCCGTATTTGAC (site AGCCTTTCTGT) | 0
AGCCTTGCATGGACCGGTTTTCCCGGTAATCCGTATTTGTA (site AGCCTTGCTTA) | 0.019

Sequence | recombinant UMI read abundance (log10)
AGCCTTTCATGGACCGGTTTTCCCGGTAATCCGTATTTGGC (site AGCCTTTCTGA) | 0
AGCCTTTCATGGACCGGTTTTCCCGGTAATCCGTATTTGGC (site AGCCTTTCTGC) | 0
AGCCTTTCATGGACCGGTTTTCCCGGTAATCCGTATTTGGC (site AGCCTTTCTGG) | 0
AGCCTTTCATGGACCGGTTTTCCCGGTAATCCGTATTTGGC (site AGCCTTTCTGT) | 0
AGCGAGCCATGGACCGGTTTTCCCGGTAATCCGTATTTGTA (site AGCGAGCCTTA) | 0.53
AGCGAGCCATGGACCGGTTTTCCCGGTAATCCGTATTTGTT (site AGCGAGCCTAA) | 0.501
AGCGGATCATGGACCGGTTTTCCCGGTAATCCGTATTTGAG (site AGCGGATCTCT) | 2.33
AGCGTGGCATGGACCGGTTTTCCCGGTAATCCGTATTTGGG (site AGCGTGGCTCC) | 0.277
AGCGTTTCATGGACCGGTTTTCCCGGTAATCCGTATTTGAC (site AGCATTTCTGT) | 0
AGCGTTTCATGGACCGGTTTTCCCGGTAATCCGTATTTGAC (site AGCCTTTCTGT) | 0
AGCGTTTCATGGACCGGTTTTCCCGGTAATCCGTATTTGAC (site AGCGTTTCTGT) | 2.63
AGCGTTTCATGGACCGGTTTTCCCGGTAATCCGTATTTGAC (site AGCTTTTCTGT) | 0.136
AGCTACGCATGGACCGGTTTTCCCGGTAATCCGTATTTGTC (site AGCTACGCTGA) | 2.27
AGCTAGACATGGACCGGTTTTCCCGGTAATCCGTATTTGGG (site AACTAGACTCC) | 0.0198
AGCTAGACATGGACCGGTTTTCCCGGTAATCCGTATTTGGG (site ACCTAGACTCC) | 0.239
AGCTAGACATGGACCGGTTTTCCCGGTAATCCGTATTTGGG (site AGCTAGACTCC) | 0.0244
AGCTAGACATGGACCGGTTTTCCCGGTAATCCGTATTTGGG (site ATCTAGACTCC) | 0.0227
AGCTATTCATGGACCGGTTTTCCCGGTAATCCGTATTTGGC (site AGCTATTCTGC) | 0.69
AGCTCAGCATGGACCGGTTTTCCCGGTAATCCGTATTTGCG (site AGCTCAGCTCA) | 0.0116
AGCTCAGCATGGACCGGTTTTCCCGGTAATCCGTATTTGCG (site AGCTCAGCTCC) | 0.00908
AGCTCAGCATGGACCGGTTTTCCCGGTAATCCGTATTTGCG (site AGCTCAGCTCG) | 0.537
AGCTCAGCATGGACCGGTTTTCCCGGTAATCCGTATTTGCG (site AGCTCAGCTCT) | 0.277
AGCTCCGCATGGACCGGTTTTCCCGGTAATCCGTATTTGCG (site AGCTCCGCTCG) | 0.271
AGCTGGTCATGGACCGGTTTTCCCGGTAATCCGTATTTGTA (site AGCTGGTCTTA) | 0.951
AGCTTAGCATGGACCGGTTTTCCCGGTAATCCGTATTTGGG (site AGCTAAGCTCC) | 0.0186
